The values that follow come from patent publication US10017584B2, “6-deoxy-6-thioether-amino acid cyclodextrin derivative and preparation method thereof” (Hangzhou Adamerck Pharmlabs Inc., priority 2010, dated 2018).

The structures appear in SMILES notation. Read-outs that look alike come from different tables or passages of the source.

In data set [1] the test system is muscular relaxation induced by rocuronium bromide. As to the kind of experiment: Reversal of rocuronium bromide induced muscular relaxation in anaesthetised Guinea pigs (TOF-Watch SX monitor). It counts as in vivo, Guinea pig. As to conditions: guinea pig, in vivo, iv, 2 mg/kg. An excerpt:
After pentobarbital sodium anesthesia in the abdominal cavity, the Guinea pigs are fixed on rat boards and connected to small animal ventilators after endotracheal intubation. Stimulating electrodes of a muscular relaxation monitor, TOF-Watch SX, are respectively connected to left post-femur and post-tibialis subcutis of the Guinea pig. Self-made tools are used to fix the left tibialis on a small platform while permitting the left hind paw to be able to move freely. A sensor is fixed on a palm surface of a left hind leg of the Guinea pig and a probe of skin temperature is fixed on a palm surface of a left front leg of the Guinea pig.

Data set [2] concerns small mice. As to the kind of experiment: Toxic reactions after intravenous tail injection in male small mice. As to conditions: intravenous injection at the tail, 200 mg/ml, 4000 mg/kg.
Text: (§1) Male small mice are processed with intravenous injection with compounds of the present invention at the tails.
The subject of data set [3] is small mice. As to conditions: according to reports; cited from earlier work.
The subject of data set [4] is small mice. As to conditions: mouse, in vivo, iv, 4000 mg/kg.
Text: as §1

Consider `N[C@@H](CSC[C@H]1O[C@@H]2O[C@H]3[C@H](O)[C@@H](O)[C@@H](O[C@H]4[C@H](O)[C@@H](O)[C@@H](O[C@H]5[C@H](O)[C@@H](O)[C@@H](O[C@H]6[C@H](O)[C@@H](O)[C@@H](O[C@H]7[C@H](O)[C@@H](O)[C@@H](O[C@H]8[C@H](O)[C@@H](O)[C@@H](O[C@H]9[C@H](O)[C@@H](O)[C@@H](O[C@H]1[C@H](O)[C@H]2O)O[C@@H]9CSC[C@H](N)C(=O)[O-])O[C@@H]8CSC[C@H](N)C(=O)[O-])O[C@@H]7CSC[C@H](N)C(=O)[O-])O[C@@H]6CSC[C@H](N)C(=O)[O-])O[C@@H]5CSC[C@H](N)C(=O)[O-])O[C@@H]4CSC[C@H](N)C(=O)[O-])O[C@@H]3CSC[C@H](N)C(=O)[O-])C(=O)[O-].[Na+].[Na+].[Na+].[Na+].[Na+].[Na+].[Na+].[Na+]` [CD-7, 6-per-deoxy-6-per-(α-L-glycinemethyl)thioether-γ-cyclodextrin sodium salt], for which, in data set [1], the “T1 recovering to 25%/time” value worked out at 1.25 min, the “T1 recovering to 50%/time” value stood at 1.50 min, the “T1 recovering to 75%/time” value is 2.75 min and the “TOF recovering to 50%/time” value was 1.25 min. In data set [1], the “TOF recovering to 75%/time” value was found to be 1.50 min. The “result description (toxic reactions)” value with small mice [2] was “normal”.
Turning to `O=C(O)CCSC[C@H]1O[C@@H]2O[C@H]3[C@H](O)[C@@H](O)[C@@H](O[C@H]4[C@H](O)[C@@H](O)[C@@H](O[C@H]5[C@H](O)[C@@H](O)[C@@H](O[C@H]6[C@H](O)[C@@H](O)[C@@H](O[C@H]7[C@H](O)[C@@H](O)[C@@H](O[C@H]8[C@H](O)[C@@H](O)[C@@H](O[C@H]9[C@H](O)[C@@H](O)[C@@H](O[C@H]1[C@H](O)[C@H]2O)O[C@@H]9CSCCC(=O)O)O[C@@H]8CSCCC(=O)O)O[C@@H]7CSCCC(=O)O)O[C@@H]6CSCCC(=O)O)O[C@@H]5CSCCC(=O)O)O[C@@H]4CSCCC(=O)O)O[C@@H]3CSCCC(=O)O` [Bridion, sugammadex], the maximal safe dose in the data set with small mice [3] was 2000 mg/kg.
On to `CC(C)(SC[C@H]1O[C@@H]2O[C@H]3[C@H](O)[C@@H](O)[C@@H](O[C@H]4[C@H](O)[C@@H](O)[C@@H](O[C@H]5[C@H](O)[C@@H](O)[C@@H](O[C@H]6[C@H](O)[C@@H](O)[C@@H](O[C@H]7[C@H](O)[C@@H](O)[C@@H](O[C@H]8[C@H](O)[C@@H](O)[C@@H](O[C@H]9[C@H](O)[C@@H](O)[C@@H](O[C@H]1[C@H](O)[C@H]2O)O[C@@H]9CSC(C)(C)[C@@H](N)C(=O)[O-])O[C@@H]8CSC(C)(C)[C@@H](N)C(=O)[O-])O[C@@H]7CSC(C)(C)[C@@H](N)C(=O)[O-])O[C@@H]6CSC(C)(C)[C@@H](N)C(=O)[O-])O[C@@H]5CSC(C)(C)[C@@H](N)C(=O)[O-])O[C@@H]4CSC(C)(C)[C@@H](N)C(=O)[O-])O[C@@H]3CSC(C)(C)[C@@H](N)C(=O)[O-])[C@@H](N)C(=O)[O-].[Na+].[Na+].[Na+].[Na+].[Na+].[Na+].[Na+].[Na+]` [CD-20, 6-per-deoxy-6-per-(α-D-amino acid dimethyl)sulfinyl-γ-cyclodextrin sodium salt], for which, in the data set on small mice [4], the “result description (toxic reactions)” value is on record as “normal”.
